From ChEMBL document CHEMBL1201862, “PubChem BioAssay data set” (2004)
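These data come from cells grown in 96-well plates and exposed to compound for 48 hours at five concentrations. The concentration for 50% growth inhibition is given as GI50.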 Active and inactive are the calls of the source. No stated cut-off is given here; in the data, active = GI50 up to about 1.1 µM and inactive = higher.

What was measured:
Assay in all cases: NCI-60 cell line screen, 48 h
[1] = tested on: NCI-H23
[2] = tested on: RXF 393
[3] = tested on: SF-295
[4] = tested on: SR
[5] = tested on: KM12
[6] = tested on: RPMI-8226
[7] = tested on: ACHN
[8] = tested on: IGROV-1
[9] = tested on: MDA-MB-231
[10] = tested on: PC-3
[11] = tested on: CAKI-1
[12] = tested on: HCC 2998
[13] = tested on: MDA-MB-435
[14] = tested on: OVCAR-3
[15] = tested on: SW-620
[16] = tested on: UO-31
[17] = tested on: Hs-578T
[18] = tested on: M14
[19] = tested on: HOP-62
[20] = tested on: UACC-62

Structure (SMILES) | GI50 [1] | GI50 [2] | GI50 [3] | GI50 [4] | GI50 [5] | GI50 [6] | GI50 [7] | GI50 [8] | GI50 [9] | GI50 [10] | GI50 [11] | GI50 [12] | GI50 [13] | GI50 [14] | GI50 [15] | GI50 [16] | GI50 [17] | GI50 [18] | GI50 [19] | GI50 [20]
CCOC(=O)NC(NNc1ccc([N+](=O)[O-])cc1[N+](=O)[O-])(C(F)(F)F)C(F)(F)F | 31.7 µM (inactive) | 27.8 µM (inactive) | 59.7 µM (inactive) | 5.79 µM (inactive) | 29.4 µM (inactive) | 17.9 µM (inactive) | 43.3 µM (inactive) | 54.8 µM (inactive) | 15.8 µM (inactive) | 24.7 µM (inactive) | 33 µM (inactive) | 23.3 µM (inactive) | 42.6 µM (inactive) | 31.6 µM (inactive) | 40.3 µM (inactive) | 21.9 µM (inactive) | 34.4 µM (inactive) | 65.2 µM (inactive) | 32.9 µM (inactive) | 74.5 µM (inactive)
COc1ccccc1-c1cc(O)c2cccnc2n1 | 35.2 µM (inactive) | > 100 µM (inactive) | 67.9 µM (inactive) | > 100 µM (inactive) | 35.6 µM (inactive) | 44.1 µM (inactive) | 64.1 µM (inactive) | 22.5 µM (inactive) | 52.6 µM (inactive) | 40.2 µM (inactive) | 29.4 µM (inactive) | > 100 µM (inactive) | 23.4 µM (inactive) | 36.5 µM (inactive) | 30.1 µM (inactive) | 70.3 µM (inactive) | 61 µM (inactive) | 38.4 µM (inactive) | > 100 µM (inactive) | 47.5 µM (inactive)
c1ccc([P+](CCCCCCCC[P+](c2ccccc2)(c2ccccc2)c2ccccc2)(c2ccccc2)c2ccccc2)cc1 | 2.16 µM (inactive) | 31.6 µM (inactive) | 6.53 µM (inactive) | 23 µM (inactive) | 1.52 µM (inactive) | 1.87 µM (inactive) | 58.9 µM (inactive) | 2.4 µM (inactive) | 7.13 µM (inactive) | 1.19 µM (inactive) | > 100 µM (inactive) | 21.3 µM (inactive) | 4.92 µM (inactive) | 3.83 µM (inactive) | 6.81 µM (inactive) | > 100 µM (inactive) | 2.06 µM (inactive) | 35.6 µM (inactive) | 3.64 µM (inactive) | 24.1 µM (inactive)
CN(N)/N=N/c1[nH]cnc1C(N)=O | 50.4 µM (inactive) | > 100 µM (inactive) | 6.14 µM (inactive) | 0.352 µM (active) | 23.7 µM (inactive) | 3.36 µM (inactive) | 22.3 µM (inactive) | 9.93 µM (inactive) | 3.22 µM (inactive) | 15.3 µM (inactive) | 4.24 µM (inactive) | 3.3 µM (inactive) | 25.2 µM (inactive) | 17.5 µM (inactive) | 9.75 µM (inactive) | 4 µM (inactive) | 37.5 µM (inactive) | 3.01 µM (inactive) | 48.9 µM (inactive) | 6.14 µM (inactive)
CNC(=O)N(CCC#N)CCN(C(=O)N(C)C)c1ccccc1 | > 100 µM (inactive) | > 100 µM (inactive) | > 100 µM (inactive) | > 100 µM (inactive) | > 100 µM (inactive) | > 100 µM (inactive) | > 100 µM (inactive) | > 100 µM (inactive) | > 100 µM (inactive) | > 100 µM (inactive) | > 100 µM (inactive) | > 100 µM (inactive) | > 100 µM (inactive) | > 100 µM (inactive) | > 100 µM (inactive) | > 100 µM (inactive) | > 100 µM (inactive) | > 100 µM (inactive) | > 100 µM (inactive) | > 100 µM (inactive)
COc1ccc(N2C(=O)/C(=C/c3ccc(N(CCC#N)CCC#N)cc3C)N=C2c2cc([N+](=O)[O-])ccc2Cl)cc1 | 7.59 µM (inactive) | 4.61 µM (inactive) | 3.05 µM (inactive) | 3.24 µM (inactive) | 6.52 µM (inactive) | 4.18 µM (inactive) | 22.6 µM (inactive) | 19.7 µM (inactive) | 12.6 µM (inactive) | 4.7 µM (inactive) | 7 µM (inactive) | 4.68 µM (inactive) | 1.96 µM (inactive) | 3.35 µM (inactive) | 4.55 µM (inactive) | 5.19 µM (inactive) | 1.54 µM (inactive) | 4.67 µM (inactive) | 5.46 µM (inactive) | 5.27 µM (inactive)
